#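 How tested: cells in 96-well plates exposed to compound for 48 hours at five concentrations. The concentration for 50% growth inhibition is given as GI50. TGI: total growth inhibition.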
# What was measured:
# Experiment in all cases: NCI-60 cell line screen, 48 h
# 786-0 renal = tested on: 786-0 renal
# A498 renal = tested on: A498 renal
# A549 NSCLC = tested on: A549 NSCLC
# ACHN renal = tested on: ACHN renal
# BT-549 breast = tested on: BT-549 breast
# CAKI-1 renal = tested on: CAKI-1 renal
# CCRF-CEM leukemia = tested on: CCRF-CEM leukemia
# COLO 205 colon = tested on: COLO 205 colon
# DU-145 prostate = tested on: DU-145 prostate
# EKVX NSCLC = tested on: EKVX NSCLC
# HCC-2998 colon = tested on: HCC-2998 colon
# HCT-116 colon = tested on: HCT-116 colon
# HCT-15 colon = tested on: HCT-15 colon
# HL-60(TB) leukemia = tested on: HL-60(TB) leukemia
# HOP-62 NSCLC = tested on: HOP-62 NSCLC
# HOP-92 NSCLC = tested on: HOP-92 NSCLC
# HS 578T breast = tested on: HS 578T breast
# HT29 colon = tested on: HT29 colon
# IGROV1 ovarian = tested on: IGROV1 ovarian
# K-562 leukemia = tested on: K-562 leukemia
# KM12 colon = tested on: KM12 colon
# LOX IMVI melanoma = tested on: LOX IMVI melanoma
# M14 melanoma = tested on: M14 melanoma
# MALME-3M melanoma = tested on: MALME-3M melanoma
# MCF7 breast = tested on: MCF7 breast
# MDA-MB-231 breast = tested on: MDA-MB-231 breast
# MDA-MB-435 = tested on: MDA-MB-435
# MOLT-4 leukemia = tested on: MOLT-4 leukemia
# NCI-H226 lung = tested on: NCI-H226 lung
# NCI-H23 lung = tested on: NCI-H23 lung
# NCI-H460 lung = tested on: NCI-H460 lung
# NCI-H522 lung = tested on: NCI-H522 lung
# NCI/ADR-RES ovarian = tested on: NCI/ADR-RES ovarian
# OVCAR-4 ovarian = tested on: OVCAR-4 ovarian
# OVCAR-5 ovarian = tested on: OVCAR-5 ovarian
# OVCAR-8 ovarian = tested on: OVCAR-8 ovarian
# PC-3 prostate = tested on: PC-3 prostate
# RPMI-8226 leukemia = tested on: RPMI-8226 leukemia
# RXF 393 renal = tested on: RXF 393 renal
# SF-268 CNS = tested on: SF-268 CNS
# SF-295 CNS = tested on: SF-295 CNS
# SF-539 CNS = tested on: SF-539 CNS
# SK-MEL-2 melanoma = tested on: SK-MEL-2 melanoma
# SK-MEL-28 melanoma = tested on: SK-MEL-28 melanoma
# SK-MEL-5 melanoma = tested on: SK-MEL-5 melanoma
# SK-OV-3 ovarian = tested on: SK-OV-3 ovarian
# SN12C renal = tested on: SN12C renal
# SNB-19 CNS = tested on: SNB-19 CNS
# SNB-75 CNS = tested on: SNB-75 CNS
# SR leukemia = tested on: SR leukemia
# SW-620 colon = tested on: SW-620 colon
# T-47D breast = tested on: T-47D breast
# TK-10 renal = tested on: TK-10 renal
# U251 CNS = tested on: U251 CNS
# UACC-257 melanoma = tested on: UACC-257 melanoma
# UO-31 renal = tested on: UO-31 renal
compound,measurement,setting,value
COc1cccc2c1C=CC1(O2)Oc2cccc(OC)c2C=C1C (stereo unspecified),GI50,786-0 renal,563 nM
same,GI50,A498 renal,486 nM
same,TGI,A498 renal,5430 nM
same,GI50,A549 NSCLC,821 nM
same,TGI,A549 NSCLC,> 100000 nM
same,GI50,ACHN renal,699 nM
same,TGI,ACHN renal,> 100000 nM
same,GI50,BT-549 breast,656 nM
same,TGI,BT-549 breast,6390 nM
same,GI50,CAKI-1 renal,461 nM
same,TGI,CAKI-1 renal,> 100000 nM
same,GI50,CCRF-CEM leukemia,356 nM
same,TGI,CCRF-CEM leukemia,3320 nM
same,GI50,COLO 205 colon,243 nM
same,TGI,COLO 205 colon,587 nM
same,GI50,DU-145 prostate,727 nM
same,TGI,DU-145 prostate,> 100000 nM
same,GI50,EKVX NSCLC,2110 nM
same,TGI,EKVX NSCLC,> 100000 nM
same,GI50,HCC-2998 colon,1430 nM
same,TGI,HCC-2998 colon,9320 nM
same,GI50,HCT-116 colon,413 nM
same,TGI,HCT-116 colon,10500 nM
same,GI50,HCT-15 colon,420 nM
same,TGI,HCT-15 colon,> 43600 nM
same,GI50,HL-60(TB) leukemia,364 nM
same,TGI,HL-60(TB) leukemia,> 100000 nM
same,GI50,HOP-62 NSCLC,1490 nM
same,TGI,HOP-62 NSCLC,> 100000 nM
same,GI50,HOP-92 NSCLC,316 nM
same,GI50,HS 578T breast,2100 nM
same,TGI,HS 578T breast,> 100000 nM
same,GI50,HT29 colon,404 nM
same,GI50,IGROV1 ovarian,794 nM
same,TGI,IGROV1 ovarian,> 100000 nM
same,GI50,K-562 leukemia,347 nM
same,TGI,K-562 leukemia,> 100000 nM
same,GI50,KM12 colon,544 nM
same,TGI,KM12 colon,> 100000 nM
same,GI50,LOX IMVI melanoma,515 nM
same,TGI,LOX IMVI melanoma,3950 nM
same,GI50,M14 melanoma,345 nM
same,TGI,M14 melanoma,4890 nM
same,GI50,MALME-3M melanoma,899 nM
same,TGI,MALME-3M melanoma,48000 nM
same,GI50,MCF7 breast,383 nM
same,TGI,MCF7 breast,> 100000 nM
same,GI50,MDA-MB-231 breast,596 nM
same,TGI,MDA-MB-231 breast,> 60200 nM
same,GI50,MDA-MB-435,226 nM
same,TGI,MDA-MB-435,556 nM
same,GI50,MOLT-4 leukemia,430 nM
same,GI50,NCI-H226 lung,1750 nM
same,TGI,NCI-H226 lung,> 100000 nM
same,GI50,NCI-H23 lung,1370 nM
same,TGI,NCI-H23 lung,> 100000 nM
same,GI50,NCI-H460 lung,426 nM
same,TGI,NCI-H460 lung,2490 nM
same,GI50,NCI-H522 lung,290 nM
same,GI50,NCI/ADR-RES ovarian,417 nM
same,TGI,NCI/ADR-RES ovarian,> 81700 nM
same,GI50,OVCAR-4 ovarian,6390 nM
same,TGI,OVCAR-4 ovarian,> 100000 nM
same,GI50,OVCAR-5 ovarian,1300 nM
same,TGI,OVCAR-5 ovarian,> 100000 nM
same,GI50,OVCAR-8 ovarian,1340 nM
same,TGI,OVCAR-8 ovarian,6820 nM
same,GI50,PC-3 prostate,376 nM
same,TGI,PC-3 prostate,> 36400 nM
same,GI50,RPMI-8226 leukemia,352 nM
same,TGI,RPMI-8226 leukemia,2350 nM
same,GI50,RXF 393 renal,300 nM
same,TGI,RXF 393 renal,1630 nM
same,GI50,SF-268 CNS,1840 nM
same,TGI,SF-268 CNS,> 100000 nM
same,GI50,SF-295 CNS,359 nM
same,TGI,SF-295 CNS,> 44200 nM
same,GI50,SF-539 CNS,363 nM
same,TGI,SF-539 CNS,1840 nM
same,GI50,SK-MEL-2 melanoma,588 nM
same,GI50,SK-MEL-28 melanoma,2880 nM
same,TGI,SK-MEL-28 melanoma,> 100000 nM
same,GI50,SK-MEL-5 melanoma,521 nM
same,TGI,SK-MEL-5 melanoma,11000 nM
same,GI50,SK-OV-3 ovarian,700 nM
same,TGI,SK-OV-3 ovarian,> 100000 nM
same,GI50,SN12C renal,683 nM
same,TGI,SN12C renal,> 100000 nM
same,GI50,SNB-19 CNS,649 nM
same,TGI,SNB-19 CNS,> 100000 nM
same,GI50,SNB-75 CNS,218 nM
same,TGI,SNB-75 CNS,1510 nM
same,GI50,SR leukemia,284 nM
same,TGI,SR leukemia,2060 nM
same,GI50,SW-620 colon,434 nM
same,TGI,SW-620 colon,> 100000 nM
same,GI50,T-47D breast,858 nM
same,TGI,T-47D breast,> 100000 nM
same,GI50,TK-10 renal,12200 nM
same,TGI,TK-10 renal,> 100000 nM
same,GI50,U251 CNS,415 nM
same,TGI,U251 CNS,5520 nM
same,GI50,UACC-257 melanoma,1510 nM
same,TGI,UACC-257 melanoma,> 100000 nM
same,GI50,UO-31 renal,1270 nM
same,TGI,UO-31 renal,> 100000 nM
